Usually IC50 stands for the concentration needed to halve the response being measured. Higher therefore signals weaker potency in that assay. The Kd is the equilibrium constant for the complex coming apart.

Assay [1] has as its system human lung cancer strain NCI-H441.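 Note: cell proliferation inhibition after four days measured by CellTiter-Glo.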
Assay [2] concerns the target GDP-bound NRAS wild-type protein (Homo sapiens, UniProt P01111). The experiment in a line: Binding to NRAS by surface plasmon resonance (SPR), Single Cycle Kinetics. The note with it: for NRAS/KRAS (ratio of KD value for NRAS to KD value for KRAS): SPR, GDP-bound NRAS wild-type protein vs GDP-bound KRAS wild-type protein.
Assay [3] has as its target GDP-bound HRAS wild-type protein (Homo sapiens, UniProt P01112). The experiment in a line: Binding to HRAS by surface plasmon resonance (SPR), Single Cycle Kinetics. The note with it: for HRAS/KRAS (ratio of KD value for HRAS to KD value for KRAS): SPR, GDP-bound HRAS wild-type protein vs GDP-bound KRAS wild-type protein. Background: SPR reads the build-up and loss of mass on a sensor chip optically.

Assay [4] addresses GDP-bound KRAS wild-type protein (Homo sapiens, UniProt P01116). The assay is described as follows: Binding to KRAS by surface plasmon resonance (SPR), Single Cycle Kinetics. The following applies: GDP-bound KRAS wild-type protein, read-out: KRAS KD.
[5] abbreviates: SPR, Single Cycle Kinetics, 1:1 binding model.

Like-named read-outs stand apart in the source and are kept apart here.

Sequence of GDP-bound KRAS wild-type protein (P01116 whole entry): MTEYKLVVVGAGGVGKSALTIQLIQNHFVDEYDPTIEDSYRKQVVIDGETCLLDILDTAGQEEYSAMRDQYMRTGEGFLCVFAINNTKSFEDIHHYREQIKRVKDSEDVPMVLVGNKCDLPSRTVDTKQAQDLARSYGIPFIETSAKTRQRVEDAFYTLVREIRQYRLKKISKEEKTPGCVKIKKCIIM
Sequence of GDP-bound NRAS wild-type protein (P01111 whole entry): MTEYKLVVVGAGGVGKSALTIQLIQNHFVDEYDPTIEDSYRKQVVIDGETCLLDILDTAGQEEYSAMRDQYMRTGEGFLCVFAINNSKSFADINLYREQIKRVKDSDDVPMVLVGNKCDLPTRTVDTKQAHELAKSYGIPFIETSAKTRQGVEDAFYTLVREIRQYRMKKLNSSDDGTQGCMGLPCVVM
Sequence of GDP-bound HRAS wild-type protein (P01112 whole entry): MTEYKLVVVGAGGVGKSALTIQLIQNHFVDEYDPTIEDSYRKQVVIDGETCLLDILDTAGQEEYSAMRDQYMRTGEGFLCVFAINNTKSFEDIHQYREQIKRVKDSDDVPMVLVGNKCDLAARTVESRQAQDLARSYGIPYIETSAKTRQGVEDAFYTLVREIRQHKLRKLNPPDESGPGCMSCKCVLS

Regarding `CCO[C@@H]1C[C@H]2C(=O)NC3(CCC3)C(=O)N(C)[C@@H](C3CCCC3)C(=O)N(C)[C@H](C(=O)N(C)C)CC(=O)N(C)[C@@H](CC3CC3)C(=O)N[C@@H]([C@@H](C)CC)C(=O)N(C)CC(=O)N(C)[C@H]3CCCCCN(C3=O)[C@@H](Cc3ccc(F)cc3)C(=O)N(C)CC(=O)N[C@@H](CCc3cc(F)c(C(F)(F)F)c(F)c3)C(=O)N2C1` [PP1192], half-maximal inhibition in assay [1] (IC50) was put at 10.5 nM. Further, in assay [2], the “NRAS/KRAS (ratio of KD value for NRAS to KD value for KRAS)” value was “B (a compound having 3 or more and less than 10 is denoted as B)”. The “HRAS/KRAS (ratio of KD value for HRAS to KD value for KRAS)” value in assay [3] was “A (a compound having 10 or more and less than 20 is denoted as A)”. In assay [4] (SPR, Single Cycle Kinetics), the Kd turned out to be 0.04 nM.

In turn, `CCO[C@@H]1C[C@H]2C(=O)NC3(CCC3)C(=O)N(C)[C@@H](C3CCCC3)C(=O)N(C)[C@H](C(=O)N3CCCC3)CC(=O)N(C)[C@@H](CC3CCC3)C(=O)N[C@@H]([C@@H](C)CC)C(=O)N(C)CC(=O)N(C)[C@H]3C/C=C\CCN(C3=O)[C@@H](Cc3ccc(C(F)(F)F)cc3)C(=O)N(C)CC(=O)N[C@@H](CCc3cc(F)c(C(F)(F)F)c(F)c3)C(=O)N2C1` [PP1423] came in with an IC50 in assay [1] of 4.4 nM. For the same compound, the “NRAS/KRAS (ratio of KD value for NRAS to KD value for KRAS)” value in assay [2] (KD ratio class) is given as “AA (a compound having 20 or more is denoted as AA)”. Also, in assay [3] (KD ratio class), the “HRAS/KRAS (ratio of KD value for HRAS to KD value for KRAS)” value is “A (a compound having 10 or more and less than 20 is denoted as A)”. In assay [4] (setting [5]), the Kd worked out at 0.14 nM.

In assay [1], `CCO[C@@H]1C[C@H]2C(=O)NC3(CCC3)C(=O)N(C)[C@@H](C3CCCC3)C(=O)N(C)[C@H](C(=O)N(C)C)CC(=O)N(C)[C@@H](CC(C)C)C(=O)N[C@@H]([C@@H](C)CC)C(=O)N(C)CC(=O)N(C)[C@H]3C/C=C\CCN(C3=O)[C@@H](Cc3ccc(C(F)(F)F)cc3)C(=O)N(C)CC(=O)N[C@@H](CCc3ccc4sccc4c3)C(=O)N2C1` [PP1257] displayed an IC50 of 54.3 nM. The “NRAS/KRAS (ratio of KD value for NRAS to KD value for KRAS)” value in assay [2] (KD ratio class) is “A (a compound having 10 or more and less than 20 is denoted as A)”. Further, in assay [3] (KD ratio class), the “HRAS/KRAS (ratio of KD value for HRAS to KD value for KRAS)” value is “A (a compound having 10 or more and less than 20 is denoted as A)”. In addition, in assay [4] (setting [5]), the Kd worked out at 0.33 nM.

Turning to `CCOC[C@H]1C(=O)N[C@@H]([C@@H](C)CC)C(=O)N(C)CC(=O)N(C)[C@H]2C/C=C\CCN(C2=O)[C@@H](CC2CCC(F)(F)CC2)C(=O)N(C)CC(=O)N[C@@H](CCc2ccc(C(F)(F)F)c(Cl)c2)C(=O)N2C[C@@H](C)C[C@H]2C(=O)NC2(CC(C)(C)C2)C(=O)N(C)[C@@H](C(CC)CC)C(=O)N(C)[C@H](C(=O)N(C)C)CC(=O)N1C` [PP2475], in assay [1], the IC50 was 176 nM. For the same compound, the “NRAS/KRAS (ratio of KD value for NRAS to KD value for KRAS)” value in assay [2] is reported as “AA (a compound having 20 or more is denoted as AA)”. For the same compound, the “HRAS/KRAS (ratio of KD value for HRAS to KD value for KRAS)” value in assay [3] is “A (a compound having 10 or more and less than 20 is denoted as A)”. The Kd in assay [4] (SPR, Single Cycle Kinetics) amounted to 1.5 nM.

As to `CC[C@H](C)[C@@H]1NC(=O)[C@H](COC)N(C)C(=O)C[C@@H](C(=O)N(C)C)N(C)C(=O)[C@H](C2CCCC2)N(C)C(=O)C2(CC(C)(C)C2)NC(=O)[C@@H]2C[C@@H](OC3CCCC3)CN2C(=O)[C@H](CCc2cc(F)c(C(F)(F)F)c(F)c2)NC(=O)CN(C)C(=O)[C@H](CC2CCCCC2)N2CC/C=C\C[C@@H](C2=O)N(C)C(=O)CN(C2CC2)C1=O` [PP2630], the IC50 in assay [1] came to 190 nM. The “NRAS/KRAS (ratio of KD value with respect to GDP-bound NRAS wild-type protein to KD value with respect to KRAS)” value in assay [2] (SPR KD ratio NRAS/KRAS, class symbols) was “A (a compound having 10 or more and less than 20 is denoted as A)”. Also, the “HRAS/KRAS (ratio of KD value with respect to GDP-bound HRAS wild-type protein to KD value with respect to KRAS)” value in assay [3] (SPR KD ratio HRAS/KRAS, class symbols) was “B (a compound having 3 or more and less than 10 is denoted as B)”. Moreover, the Kd in assay [4] (SPR Single Cycle Kinetics, 1:1 binding model) came to 3 nM.

In assay [1], `CCC[C@H]1C(=O)N[C@@H]([C@@H](C)CC)C(=O)N(C)CC(=O)N(C)[C@H]2C/C=C\CCN(C2=O)[C@@H](CC2CCC(F)(F)CC2)C(=O)N(C)CC(=O)N[C@@H](CCc2ccc(C(F)(F)F)c(OC)c2)C(=O)N2C[C@@H](C)C[C@H]2C(=O)N(C)C2(CCC2)C(=O)N(C)[C@@H](C2CCCC2)C(=O)N(C)[C@H](C(=O)N(C)C)CC(=O)N1C` [PP2376] yielded an IC50 of 4.8 nM. Also, in assay [2], the “NRAS/KRAS (ratio of KD value for NRAS to KD value for KRAS)” value was “A (a compound having 10 or more and less than 20 is denoted as A)”. Moreover, in assay [3], the “HRAS/KRAS (ratio of KD value for HRAS to KD value for KRAS)” value was “A (a compound having 10 or more and less than 20 is denoted as A)”. Further, in assay [4] (SPR, Single Cycle Kinetics), the Kd came to 0.28 nM.

Turning to `CCO[C@@H]1C[C@H]2C(=O)NC3(CCC3)C(=O)N(C)[C@@H](C(CC)CC)C(=O)N(C)[C@H](C(=O)N(C)C)CC(=O)N(C)[C@@H](COC)C(=O)N[C@@H]([C@@H](C)CC)C(=O)N(C)CC(=O)N(C)[C@H]3C/C=C\CCN(C3=O)[C@@H](Cc3ccc(C(F)(F)F)cc3)C(=O)N(C)CC(=O)N[C@@H](CCc3cc(F)c(C(F)(F)F)c(F)c3)C(=O)N2C1` [PP1205], in assay [1], the IC50 worked out at 25.4 nM. Further, in assay [2] (KD ratio class), the “NRAS/KRAS (ratio of KD value for NRAS to KD value for KRAS)” value is given as “AA (a compound having 20 or more is denoted as AA)”. For the same compound, in assay [3] (KD ratio class), the “HRAS/KRAS (ratio of KD value for HRAS to KD value for KRAS)” value is “A (a compound having 10 or more and less than 20 is denoted as A)”. For the same compound, in assay [4] (setting [5]), the Kd came to 0.16 nM.

In turn, `CC[C@H](C)[C@@H]1NC(=O)[C@H](CC2CC2)N(C)C(=O)C[C@@H](C)N(C)C(=O)[C@H](C2CCCC2)N(C)C(=O)C2(CCC2)NC(=O)[C@H](CCC(F)F)N(C)C(=O)[C@H](CCc2cc(F)c(C(F)(F)F)c(F)c2)NC(=O)CN(C)C(=O)[C@H](Cc2ccc(C(F)(F)F)cc2)N2CC/C=C\C[C@@H](C2=O)N(C)C(=O)CN(C)C1=O` [PP1404] displayed an IC50 in assay [1] of 498 nM. In addition, the “NRAS/KRAS (ratio of KD value for NRAS to KD value for KRAS)” value in assay [2] (KD ratio class) is “A (a compound having 10 or more and less than 20 is denoted as A)”. Moreover, the “HRAS/KRAS (ratio of KD value for HRAS to KD value for KRAS)” value in assay [3] (KD ratio class) is “A (a compound having 10 or more and less than 20 is denoted as A)”. Moreover, the Kd in assay [4] (setting [5]) turned out to be 4.8 nM.

`CC[C@H](C)[C@@H]1NC(=O)[C@H](CC)N(C)C(=O)C[C@@H](C(=O)N(C)C)N(C)C(=O)[C@H](C2CCCC2)N(C)C(=O)C2(CCC2)NC(=O)[C@H](C)N(C)C(=O)[C@H](CCc2cc(F)c(C(F)(F)F)c(F)c2)NC(=O)CN(C)C(=O)[C@H](Cc2ccc(C(F)(F)F)cc2)N2CC/C=C\C[C@@H](C2=O)N(C)C(=O)CN(C)C1=O` [PP1146] had an IC50 in assay [1] of 202 nM. Moreover, the “NRAS/KRAS (ratio of KD value for NRAS to KD value for KRAS)” value in assay [2] was “A (a compound having 10 or more and less than 20 is denoted as A)”. Besides, in assay [3], the “HRAS/KRAS (ratio of KD value for HRAS to KD value for KRAS)” value is “B (a compound having 3 or more and less than 10 is denoted as B)”. For the same compound, the Kd in assay [4] (SPR, Single Cycle Kinetics) worked out at 0.32 nM.

Compound `CCCOC[C@H]1C(=O)N[C@@H]([C@@H](C)OCC)C(=O)N2CCC[C@H]2C(=O)N(C)[C@H]2C/C=C\CCN(C2=O)[C@@H](Cc2ccc(C)cc2)C(=O)N(C)CC(=O)N[C@@H](CCc2ccc(C(F)(F)F)c(OC)c2)C(=O)N2C[C@@H](C)C[C@H]2C(=O)NC2(CC(C)(C)C2)C(=O)N(C)[C@@H](C2CCCC2)C(=O)N(C)[C@H](C(=O)N(C)CC)CC(=O)N1C` [PP2431] showed a 50% inhibitory concentration (IC50) in assay [1] of 79.5 nM. In addition, the “NRAS/KRAS (ratio of KD value for NRAS to KD value for KRAS)” value in assay [2] is “A (a compound having 10 or more and less than 20 is denoted as A)”. Further, the “HRAS/KRAS (ratio of KD value for HRAS to KD value for KRAS)” value in assay [3] is “A (a compound having 10 or more and less than 20 is denoted as A)”. Besides, in assay [4] (SPR, Single Cycle Kinetics), the Kd turned out to be 2.3 nM.

The values are drawn from patent US20240158446A1, “CYCLIC COMPOUND HAVING SELECTIVE INHIBITORY ACTION ON KRAS OVER HRAS AND NRAS” (CHUGAI SEIYAKU KABUSHIKI KAISHA, priority 2021, published 2024).
